What was measured:
Experiment in all cases: Post-emergent Test III, herbicidal activity in wheat and barley
Type in all cases: in vivo
[1] = test system: HORSS: barley, including spring and winter (Hordeum vulgare); details: 21 days after application
Outline: (§1)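 Plants at the second to third true-leaf stage, grown in a greenhouse at about 18/17 °C with a 14 h photoperiod, were sprayed post-emergence at 187 L/ha with the high rate and ½× to 1/16× serial dilutions in an acetone/DMSO/crop-oil/surfactant carrier. Injury was rated visually at 21 d on a 0–100% scale, and GR20–GR90 were derived by probit analysis.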

[2] = test system: KCHSC: kochia (Kochia scoparia); details: for GR50 KCHSC / GR80 KCHSC: probit analysis
Outline: as §1

[3] = test system: MATSS: scented mayweed (Matricaria chamomilla), pineappleweed (Matricaria matricarioides); details: for GR50 MATSS / GR80 MATSS: probit analysis
Outline: as §1

[4] = test system: SASKR: Russian thistle (Salsola iberica); details: 21 days after application
Outline: as §1

[5] = test system: TRZSS: wheat, including spring and winter (Triticum aestivum); details: 21 days after application
Outline: as §1

[6] = test system: VERPE: bird's-eye speedwell (veronica persica); details: 21 days after application
Outline: as §1

[7] = test system: VIOSS: wild pansy (Viola tricolor), field violet (Viola arvensis); details: 21 days after application
Outline: as §1

[8] = test system: APESV: bentgrass (Apera spica-venti)
Outline: as §1

[9] = test system: LOLSS: ryegrass including, Italian ryegrass (Lolium multiflorum), rigid ryegrass (Lolium rigidum), annual ryegrass (Lolium multiflorum subsp. Gaudini); details: probit analysis, 21 days after application
Outline: as §1

[10] = probit analysis, dose for 20 percent growth reduction (crop)
[11] = dose for 50 percent growth reduction, 21 days after application
[12] = dose for 80 percent growth reduction, 21 days after application
[13] = probit analysis, dose for 50 percent growth reduction
[14] = probit analysis, dose for 80 percent growth reduction
[15] = dose for growth reduction of 50 percent, 21 days after application
[16] = dose for growth reduction of 80 percent, 21 days after application

In the case of `Nc1c(F)c(-c2ccc(I)cc2F)nc(C(=O)O)c1Cl` [Compound 169], the pest or weed control at 37.1 g/ha ([1]; Hordeum vulgare, post-emergence, 504 h, 37.1 g ai/ha, read-out: Visual Gorowth Reduction (%) 21 days After Application HORSS) is reported as 95 to 100%, the pest or weed control at 74.3 g/ha ([1]; Hordeum vulgare, post-emergence, 504 h, 74.3 g ai/ha, read-out: Visual Gorowth Reduction (%) 21 days After Application HORSS) is reported as 95 to 100% and the pest or weed control at 149 g/ha ([1]; Hordeum vulgare, post-emergence, 504 h, 149 g ai/ha, read-out: Visual Gorowth Reduction (%) 21 days After Application HORSS) is reported as 95 to 100%. The “GR20 HORSS” value [1, 10] was 1 g ai/ha, the pest or weed control at 37.1 g/ha ([2]; Bassia scoparia, post-emergence, 504 h, 37.1 g ai/ha, 21 days after application, read-out: Visual Gorowth Reduction (%) 21 days After Application KCHSC) was 60 to 74% and the pest or weed control at 74.3 g/ha ([2]; Bassia scoparia, post-emergence, 504 h, 74.3 g ai/ha, 21 days after application, read-out: Visual Gorowth Reduction (%) 21 days After Application KCHSC) was 85 to 94%. The pest or weed control at 149 g/ha ([2]; Bassia scoparia, post-emergence, 504 h, 149 g ai/ha, 21 days after application, read-out: Visual Gorowth Reduction (%) 21 days After Application KCHSC) was 85 to 94%, the “GR50 KCHSC” value [2, 11] was 8 g ai/ha and the “GR80 KCHSC” value [2, 12] was 72 g ai/ha. The pest or weed control at 37.1 g/ha ([3]; Matricaria chamomilla, post-emergence, 504 h, 37.1 g ai/ha, 21 days after application, read-out: Visual Gorowth Reduction (%) 21 days After Application MATSS) was 75 to 84%, the pest or weed control at 74.3 g/ha ([3]; Matricaria chamomilla, post-emergence, 504 h, 74.3 g ai/ha, 21 days after application, read-out: Visual Gorowth Reduction (%) 21 days After Application MATSS) was 95 to 100% and the pest or weed control at 149 g/ha ([3]; Matricaria chamomilla, post-emergence, 504 h, 149 g ai/ha, 21 days after application, read-out: Visual Gorowth Reduction (%) 21 days After Application MATSS) was 95 to 100%. The “GR50 MATSS” value [3, 11] was 15 g ai/ha, the “GR80 MATSS” value [3, 12] was 35 g ai/ha and the pest or weed control at 37.1 g/ha ([4]; Salsola tragus, post-emergence, 504 h, 37.1 g ai/ha, read-out: Visual Gorowth Reduction (%) 21 days After Application SASKR) was 60 to 74%. The pest or weed control at 74.3 g/ha ([4]; Salsola tragus, post-emergence, 504 h, 74.3 g ai/ha, read-out: Visual Gorowth Reduction (%) 21 days After Application SASKR) was 75 to 84%, the pest or weed control at 149 g/ha ([4]; Salsola tragus, post-emergence, 504 h, 149 g ai/ha, read-out: Visual Gorowth Reduction (%) 21 days After Application SASKR) was 85 to 94% and the “GR50 SASKR” value [4, 13] was 5 g ai/ha. For the same molecule, the “GR80 SASKR” value [4, 14] was 83 g ai/ha, the pest or weed control at 37.1 g/ha ([5]; Triticum aestivum, post-emergence, 504 h, 37.1 g ai/ha, read-out: Visual Gorowth Reduction (%) 21 days After Application TRZSS) was 75 to 84% and the pest or weed control at 74.3 g/ha ([5]; Triticum aestivum, post-emergence, 504 h, 74.3 g ai/ha, read-out: Visual Gorowth Reduction (%) 21 days After Application TRZSS) was 85 to 94%. The pest or weed control at 149 g/ha ([5]; Triticum aestivum, post-emergence, 504 h, 149 g ai/ha, read-out: Visual Gorowth Reduction (%) 21 days After Application TRZSS) was 85 to 94%, the “GR20 TRZSS” value [5, 10] was 1 g ai/ha and the pest or weed control at 37.1 g/ha ([6]; Veronica persica, post-emergence, 504 h, 37.1 g ai/ha, read-out: Visual Gorowth Reduction (%) 21 days After Application VERPE) was 85 to 94%. The pest or weed control at 74.3 g/ha ([6]; Veronica persica, post-emergence, 504 h, 74.3 g ai/ha, read-out: Visual Gorowth Reduction (%) 21 days After Application VERPE) was 95 to 100%, the pest or weed control at 149 g/ha ([6]; Veronica persica, post-emergence, 504 h, 149 g ai/ha, read-out: Visual Gorowth Reduction (%) 21 days After Application VERPE) was 95 to 100% and the “GR50 VERPE” value [6, 13] was 19 g ai/ha. For the same molecule, the “GR80 VERPE” value [6, 14] was 37 g ai/ha, the pest or weed control at 37.1 g/ha ([7]; Viola tricolor, post-emergence, 504 h, 37.1 g ai/ha, read-out: Visual Gorowth Reduction (%) 21 days After Application VIOSS) was 75 to 84% and the pest or weed control at 74.3 g/ha ([7]; Viola tricolor, post-emergence, 504 h, 74.3 g ai/ha, read-out: Visual Gorowth Reduction (%) 21 days After Application VIOSS) was 95 to 100%. The pest or weed control at 149 g/ha ([7]; Viola tricolor, post-emergence, 504 h, 149 g ai/ha, read-out: Visual Gorowth Reduction (%) 21 days After Application VIOSS) was 95 to 100%, the “GR50 VIOSS” value [7, 13] was 21 g ai/ha and the “GR80 VIOSS” value [7, 14] was 36 g ai/ha.
Molecule `COC(=O)c1nc(-c2ccc(F)c(F)c2F)c(F)c(N)c1Cl` [Compound 186] has a pest or weed control at 35 g/ha ([8]; Apera spica-venti, post-emergence, 504 h, 35 g ai/ha, read-out: Visual Growth Reduction (%) 21 Days After Application APESV) of 0 to 29%, a pest or weed control at 70 g/ha ([8]; Apera spica-venti, post-emergence, 504 h, 70 g ai/ha, read-out: Visual Growth Reduction (%) 21 Days After Application APESV) of 0 to 29% and a pest or weed control at 140 g/ha ([8]; Apera spica-venti, post-emergence, 504 h, 140 g ai/ha, read-out: Visual Growth Reduction (%) 21 Days After Application APESV) of 0 to 29%. The “GR50 APESV” value ([8]; probit analysis, dose for growth reduction of 50 percent, 21 days after application) was over 140 g ai/ha, the “GR80 APESV” value ([8]; probit analysis, dose for growth reduction of 80 percent, 21 days after application) was over 140 g ai/ha and the pest or weed control at 35 g/ha ([2]; Bassia scoparia, post-emergence, 504 h, 35 g ai/ha, read-out: Visual Growth Reduction (%) 21 Days After Application KCHSC) was 60 to 74%. The pest or weed control at 70 g/ha ([2]; Bassia scoparia, post-emergence, 504 h, 70 g ai/ha, read-out: Visual Growth Reduction (%) 21 Days After Application KCHSC) was 60 to 74%, the pest or weed control at 140 g/ha ([2]; Bassia scoparia, post-emergence, 504 h, 140 g ai/ha, read-out: Visual Growth Reduction (%) 21 Days After Application KCHSC) was 60 to 74% and the “GR50 KCHSC” value [2, 15] was 1 g ai/ha. The “GR80 KCHSC” value [2, 16] was over 140 g ai/ha, the “GR50 LOLSS” value ([9]; dose for growth reduction of 50 percent) was over 140 g ai/ha and the “GR80 LOLSS” value ([9]; dose for growth reduction of 80 percent) was over 140 g ai/ha. It also gave a pest or weed control at 35 g/ha ([3]; Matricaria chamomilla, post-emergence, 504 h, 35 g ai/ha, read-out: Visual Growth Reduction (%) 21 Days After Application MATSS) of 0 to 29%, a pest or weed control at 70 g/ha ([3]; Matricaria chamomilla, post-emergence, 504 h, 70 g ai/ha, read-out: Visual Growth Reduction (%) 21 Days After Application MATSS) of 0 to 29% and a pest or weed control at 140 g/ha ([3]; Matricaria chamomilla, post-emergence, 504 h, 140 g ai/ha, read-out: Visual Growth Reduction (%) 21 Days After Application MATSS) of 0 to 29%. The “GR50 MATSS” value [3, 15] was over 140 g ai/ha and the “GR80 MATSS” value [3, 16] was over 140 g ai/ha.

Reference: US9113629B2, “4-amino-6-(4-substituted-phenyl)-picolinates and 6-amino-2-(4-substituted-phenyl)-pyrimidine-4-carboxylates and their use as herbicides” (DOW AGROSCIENCES LLC, priority 2013, dated 2015)
